The text below walks through data of US6653309B1, “Inhibitors of IMPDH enzyme technical field of the invention” (Vertex Pharmaceuticals Incorporated, priority 1999, dated 2003).

The term Ki denotes a measure of affinity in units of concentration, obtained from inhibition or displacement. Read a high Ki as lower affinity.

Molecules are shown by their SMILES.

The assay deals with IMPDH human type II (Homo sapiens, UniProt P12268). As to the kind of experiment: IMPDH Activity Inhibition Assay. It is filed as biochemical. The settings on record: spectrophotometric NADH formation at 340 nm, 37° C., tight-binding equation of Henderson. The protocol: IMP dehydrogenase activity was assayed following an adaptation of the method first reported by Magasanik. [B. Magasanik et al., J. Biod. Chem., 226, p. 339 (1957), the disclosure of which is herein incorporated by reference]. Enzyme activity was measured spectrophotometrically, by monitoring the increase in absorbance at 340 nm due to the formation of NADH (ε340 is 6220 M^−1 cm^−1). The reaction mixture contained 0.1 M Tris pH 8.0, 0.1 M KCl, 3 mM EDTA, 2 mM DTT, […] and enzyme (IMPDH human type II) at a concentration of 15 to 50 nM. This solution is incubated at 37° C. for 10 minutes. The reaction is started by adding NAD to a final concentration of […] and the initial rate is measured by following the linear increase in absorbance at 340 nm for 10 minutes. For reading in a standard spectrophotometer (path length 1 cm) the final volume in the cuvette is 1.0 ml. The assay has also been adapted to a 96 well microtiter plate format; in this case the concentrations of all the reagents remain the same and the final volume is decreased to 200 μl.
For the analysis of inhibitors, the compound in question is dissolved in DMSO to a final concentration of 20 mM and added to the initial assay mixture for preincubation with the enzyme at a final volume of 2-5% (v/v). The reaction is started by the addition of NAD, and the initial rates measured as above. Ki determinations are made by measuring the initial, velocities in the presence of varying amounts of inhibitor and fitting the data using the tight-binding equation of Henderson (Henderson, P. J. F. (1972) Biochem. J. 127, 321].
For the molecule `COc1ccccc1NC(=O)c1cc2ccccc2cc1O` [Compound 100], the Ki was under 10 µM.

On to `CCCC(=O)Oc1cc2ccccc2cc1C(=O)Nc1ccccc1OC` [Compound 101], for which the Ki was 10 to 20 µM. Under `COc1cc(NC(=O)c2cccc(CNC(=O)O[C@H]3CCOC3)c2)ccc1-c1cnco1` [Compound 102] stands under 10 µM; under `COc1ccccc1NC(=O)c1cc2cc(Br)ccc2cc1OC(C)=O` [Compound 104], 10 to 20 µM.

`COc1ccccc1N(C)C(=O)c1cc2ccccc2cc1O` [Compound 105] yielded a Ki of 10 to 20 µM. The figure for `C=CCN(C(=O)c1cc2ccccc2cc1O)c1ccccc1OC` [Compound 106] is 10 to 20 µM; for `COc1ccccc1N(Cc1ccccc1)C(=O)c1cc2ccccc2cc1O` [Compound 107] it is 10 to 20 µM; for `COc1ccccc1NC(=O)c1ccccc1OC` [Compound 108] it is 10 to 20 µM. `COc1cc(NC(=O)c2cccc(CCNC(=O)O[C@H]3CCOC3)c2)ccc1-c1cnco1` [Compound 109] yielded a Ki of under 10 µM. The figure for `COc1ccccc1NC(=O)c1ccc2ccccc2c1` [Compound 110] is 10 to 20 µM; for `COc1ccccc1NC(=O)c1cc2ccccc2cc1OC(=O)c1ccccc1` [Compound 111] it is under 10 µM; for `COc1ccccc1NC(=O)c1cc2ccccc2cc1OC(=O)C(C)(C)C` [Compound 112] it is 10 to 20 µM.

The molecule `CCCC(=O)Oc1cc2ccccc2cc1C(=O)Nc1ccc(C#N)c(OC)c1` [Compound 113] had a Ki of under 10 µM. `CCCC(=O)Oc1cc2ccccc2cc1C(=O)Nc1ccc(-c2cnco2)c(OC)c1` [Compound 114] had a Ki of under 10 µM. Under `COc1ccccc1NCc1cc2cc(Br)ccc2cc1O` [Compound 115] stands under 10 µM. The figure for `CCCC(=O)Oc1cc2ccccc2cc1C(=O)Nc1cccc(OC)c1` [Compound 116] is over 20 µM; for `CCCC(=O)Oc1cc2ccccc2cc1C(=O)Nc1ccc(OC)cc1` [Compound 117] it is over 20 µM. Take `CCCC(=O)Oc1cc2ccccc2cc1C(=O)Nc1ccc(C)cc1` [Compound 118]: the Ki lay within 10 to 20 µM. In the case of `COc1cccc(NC(=O)c2cc3ccccc3cc2O)c1` [Compound 119], the Ki was over 20 µM. `COc1ccc(NC(=O)c2cc3ccccc3cc2O)cc1` [Compound 120] had a Ki of 10 to 20 µM. The figure for `Cc1ccc(NC(=O)c2cc3ccccc3cc2O)cc1` [Compound 121] is 10 to 20 µM.

For `Cc1cccc(NC(=O)c2cc3ccccc3cc2O)c1` [Compound 122], the inhibitory constant (Ki) was 10 to 20 µM.

In turn, `O=C(Nc1cccc(C(F)(F)F)c1)c1cc2ccccc2cc1O` [Compound 123] yielded an inhibition constant (Ki) of under 10 µM. Take `O=C(Nc1ccc(C(F)(F)F)cc1)c1cc2ccccc2cc1O` [Compound 124]: the Ki was under 10 µM.

Molecule `COc1cc(NC(=O)c2cc3ccccc3cc2O)ccc1C#N` [Compound 125] came in with a Ki of 10 to 20 µM. `COc1cc(NC(=O)c2cc3ccccc3cc2O)ccc1-c1cnco1` [Compound 126] had a Ki of under 10 µM. The figure for `CCC(=O)Oc1cc2ccc(Br)cc2cc1C(=O)Nc1ccccc1OC` [Compound 127] is under 10 µM; for `O=C(Nc1ccccc1C(F)(F)F)c1cc2ccccc2cc1O` [Compound 128] it is 10 to 20 µM; for `O=C(Nc1ccccc1Br)c1cc2ccccc2cc1O` [Compound 129] it is 10 to 20 µM.

For the molecule `O=C(Nc1cccc(Br)c1)c1cc2ccccc2cc1O` [Compound 130], the Ki was 10 to 20 µM. The figure for `O=C(Nc1ccc(Br)cc1)c1cc2ccccc2cc1O` [Compound 131] is 10 to 20 µM. `Cc1ccccc1NC(=O)c1cc2ccccc2cc1O` [Compound 132] came in with a Ki of 10 to 20 µM.

In turn, `COc1ccccc1NC(=O)c1ccccc1` [Compound 133] showed a Ki of 10 to 20 µM. In the case of `COc1ccccc1NC(=O)c1ccc2c(c1)OCO2` [Compound 134], the Ki lay in the range of 10 to 20 µM. The figure for `O=C(Nc1ccccc1OC(F)(F)F)c1cc2ccccc2cc1O` [Compound 135] is 10 to 20 µM; for `O=C(Nc1ccc(OC(F)(F)F)cc1)c1cc2ccccc2cc1O` [Compound 136] it is 10 to 20 µM. The figure for `COc1ccccc1NC(=O)c1cc2ccccc2cc1NC(=O)C(F)(F)F` [Compound 137] is 10 to 20 µM. `COc1ccccc1C(=O)Nc1cc2ccccc2cc1OC(=O)c1ccccc1OC` [Compound 138] came in with an inhibition constant Ki of under 10 µM.

`COc1ccccc1C(=O)Nc1cc2ccccc2cc1O` [Compound 139] registered a Ki of under 10 µM. The figure for `C=CCOc1cc2ccc(Br)cc2cc1C(=O)Nc1ccccc1OC` [Compound 140] is under 10 µM; for `COc1ccccc1NC(=O)c1cc2cc(Br)ccc2cc1OCc1ccccc1` [Compound 141] it is under 10 µM. The figure for `COc1ccccc1NC(=O)c1cc2ccccc2cc1N` [Compound 142] is 10 to 20 µM; for `O=C(Nc1cccc(OC(F)(F)F)c1)c1ccc2ccccc2c1` [Compound 143] it is under 10 µM. The figure for `N#Cc1ccccc1NC(=O)c1cc2ccccc2cc1O` [Compound 144] is 10 to 20 µM; for `N#Cc1cccc(NC(=O)c2cc3ccccc3cc2O)c1` [Compound 145] it is 10 to 20 µM. On to `COc1ccccc1NC(=O)c1ccc2ccccc2c1O` [Compound 146], for which the Ki lay in the range of 10 to 20 µM. Under `COc1ccccc1NC(=O)c1ccccc1O` [Compound 147] stands under 10 µM.

Regarding `CCCCC(=O)Oc1cc2ccccc2cc1C(=O)Nc1ccccc1OC` [Compound 148], the Ki was in the range of 10 to 20 µM. The figure for `COc1ccccc1N(C)C(=O)c1cc2cc(Br)ccc2cc1O` [Compound 149] is 10 to 20 µM; for `COc1ccc(C(=O)Nc2ccccc2OC)c(O)c1` [Compound 150] it is 10 to 20 µM. The figure for `COc1ccccc1N(C)Cc1cc2cc(Br)ccc2cc1O` [Compound 151] is under 10 µM; for `COc1ccccc1NC(=O)c1cccc(-c2ccccc2)c1O` [Compound 152] it is 10 to 20 µM.

`CCCCC(=O)Oc1cc2ccc(Br)cc2cc1C(=O)Nc1ccccc1OC` [Compound 153] came in with a Ki of under 10 µM.

In turn, `COc1ccc(-c2ccccc2)cc1NC(=O)c1cc2ccccc2cc1O` [Compound 154] returned a Ki of 10 to 20 µM. Under `O=C(Nc1ccccc1Cl)c1cc2ccccc2cc1O` [Compound 155] stands 10 to 20 µM; under `O=C(Nc1cccc(Cl)c1)c1cc2ccccc2cc1O` [Compound 156], 10 to 20 µM; under `COc1ccccc1NC(=O)c1cccc(OC)c1O` [Compound 157], 10 to 20 µM. As to `CCS(=O)(=O)c1ccc(OC)c(NC(=O)c2cc3ccccc3cc2O)c1` [Compound 159], the Ki was 10 to 20 µM.

Turning to `COc1ccc(S(=O)(=O)C(F)F)cc1NC(=O)c1cc2ccccc2cc1O` [Compound 160], the Ki was in the range of 10 to 20 µM. `O=C(Nc1ccc(Cl)cc1)c1cc2ccccc2cc1O` [Compound 161] returned a Ki of under 10 µM. Under `O=C(Nc1ccccc1F)c1cc2ccccc2cc1O` [Compound 162] stands 10 to 20 µM; under `O=C(Nc1cccc(F)c1)c1cc2ccccc2cc1O` [Compound 163], 10 to 20 µM; under `CCC(C)c1ccc(OC)c(NC(=O)c2cc3ccccc3cc2O)c1` (stereo not shown) [Compound 164], under 10 µM. The figure for `COc1ccc(C(N)=O)cc1NC(=O)c1cc2ccccc2cc1O` [Compound 165] is 10 to 20 µM; for `O=C(Nc1ccc(F)cc1)c1cc2ccccc2cc1O` [Compound 166] it is 10 to 20 µM; for `CCOc1ccccc1NC(=O)c1cc2ccccc2cc1O` [Compound 167] it is 10 to 20 µM. The figure for `CCOc1cccc(NC(=O)c2cc3ccccc3cc2O)c1` [Compound 168] is 10 to 20 µM.

With `CSc1ccccc1NC(=O)c1cc2ccccc2cc1O` [Compound 169], the Ki was under 10 µM. Under `COc1cc(NC(=O)c2cc3ccccc3cc2O)c(OC)cc1Cl` [Compound 170] stands under 10 µM. Under `COc1cc(OC)c(NC(=O)c2cc3ccccc3cc2O)cc1Cl` [Compound 171] stands 10 to 20 µM; under `COc1cc2c(cc1NC(=O)c1cc3ccccc3cc1O)oc1ccccc12` [Compound 172], under 10 µM; under `CSc1cccc(NC(=O)c2cc3ccccc3cc2O)c1` [Compound 173], 10 to 20 µM. The figure for `CSc1ccc(NC(=O)c2cc3ccccc3cc2O)cc1` [Compound 175] is under 10 µM; for `COc1ccc(C(C)(C)C)cc1NC(=O)c1cc2ccccc2cc1O` [Compound 177] it is 10 to 20 µM. Consider `COc1ccc(C)cc1NC(=O)c1cc2ccccc2cc1O` [Compound 178], for which the Ki was under 10 µM.

Take `COc1ccc(OC)c(NC(=O)c2cc3ccccc3cc2O)c1` [Compound 179]: the Ki lay within 10 to 20 µM.

In turn, `COc1ccc(C(F)(F)F)cc1NC(=O)c1cc2ccccc2cc1O` [Compound 180] returned a Ki of 10 to 20 µM. Under `COc1cc(Cl)c(C)cc1NC(=O)c1cc2ccccc2cc1O` [Compound 181] stands under 10 µM; under `O=C(Nc1ccccc1Oc1ccccc1)c1cc2ccccc2cc1O` [Compound 183], under 10 µM.
